Test system: HbF+ cells in human CD34+ HSC
Experiment: HbF+ cell % in human CD34+ HSC by FACS
Format: cell-based
Settings: 7 days of treatment
Experimental: Human cord blood CD34+ hematopoietic stem cells (HSC) were first expanded in the expansion medium (StemSpan SFEM II+StemSpan CD34 Expansion Supplement) to achieve the desired number of cells, and then differentiated in differentiation medium (StemSpan SFEM II+StemSpan Erythroid Expansion Supplement (100×)) for three days without drug treatment. Various concentrations of Cpd. 73 were added on the fourth day of differentiation and further incubated with the cells for another 7 days. 33 mM Hydroxyurea was used as the control.
After 7 days of treatment, the cells were collected and stained with PE-conjugated Mouse Anti-Human Fetal Hemoglobin (BD, 560041). The percentage of HbF+ cells were quantified by FACS. […] 73 respectively. […] 73 where HbF+ cell % was 2.58-folds of the vehicle group (p<0.0001). The % of HbF+ cells was 1.82-folds of the vehicle group when the cells were treated with 33 mM Hydroxyurea.

## CC(C)N1Cc2cc(C(F)(F)F)ncc2-c2cnc(NCc3c(F)ccc4c3CCO4)n3cnc(c23)C1=O [Cpd. 73, 12-(((5-fluoro-2,3-dihydrobenzofuran-4-yl)methyl)amino)-4-isopropyl-7-(trifluoromethyl)-4,5-dihydro-3H-2,4,8,11,12a-pentaazabenzo[4,5]cycloocta[1,2,3-cd]inden-3-one]
0.01 μM
  % of HbF+ cells, folds of the vehicle group: 0.73 folds
0.03 μM
  % of HbF+ cells, folds of the vehicle group: 0.86 folds
0.1 μM
  % of HbF+ cells, folds of the vehicle group: 1.50 folds
0.3 μM
  % of HbF+ cells, folds of the vehicle group: 1.73 folds
1.0 μM, maximal effect, p<0.0001
  % of HbF+ cells, folds of the vehicle group: 2.58 folds
